Data as given in PubChem BioAssay (NCI).
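Where inhibition never reached the appropriate level, the endpoint shown equals the highest concentration tested. Otherwise, values were interpolated linearly from a five-concentration, 48-hour dose response in 96-well plates. Here, GI50 denotes the concentration required for 50% inhibition of growth. TGI: concentration producing complete growth inhibition.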

Columns and labels:
Test in all cases: NCI tumour cell line growth inhibition, 48 h
HCT-116 colon = system: HCT-116 colon
RXF 393 renal = system: RXF 393 renal
SF-539 CNS = system: SF-539 CNS
SN12C renal = system: SN12C renal
HOP-92 NSCLC = system: HOP-92 NSCLC
UACC-257 melanoma = system: UACC-257 melanoma
KM12 colon = system: KM12 colon
SW-620 colon = system: SW-620 colon
NCI-H460 lung = system: NCI-H460 lung
HS 578T breast = system: HS 578T breast

COC(=O)C(C(=O)C(=O)Nc1ccccc1C(C)=O)c1nc2ccc(Cl)cc2[nH]c1=O (stereo not drawn)
TGI (HCT-116 colon): > 100 µM
TGI (RXF 393 renal): > 100 µM
TGI (SF-539 CNS): > 100 µM
TGI (SN12C renal): > 100 µM
TGI (HOP-92 NSCLC): > 100 µM
TGI (UACC-257 melanoma): > 100 µM
TGI (KM12 colon): > 100 µM
TGI (SW-620 colon): > 100 µM
TGI (NCI-H460 lung): > 100 µM

CCC1=C(C)/C(=C/c2[nH]c(CBr)c(CC)c2C)N=C1CBr
TGI (RXF 393 renal): 54 µM
TGI (SF-539 CNS): 38.2 µM
TGI (SN12C renal): 28.3 µM
TGI (HOP-92 NSCLC): 26.7 µM
TGI (KM12 colon): 26.9 µM
TGI (SW-620 colon): 25.3 µM
TGI (NCI-H460 lung): 38.9 µM

Cc1c(C(=O)CC(=O)C(=O)Nc2ccc(Cl)c(Cl)c2)[n+](=O)c2ccccc2n1[O-]
TGI (HCT-116 colon): 35.4 µM
TGI (RXF 393 renal): 92.2 µM
TGI (SF-539 CNS): 57.5 µM
TGI (SN12C renal): 55.4 µM
TGI (HOP-92 NSCLC): > 100 µM
TGI (UACC-257 melanoma): 34.5 µM
TGI (KM12 colon): > 100 µM
TGI (SW-620 colon): 71.8 µM
TGI (NCI-H460 lung): 57.1 µM

ClC1CCC2OOC1O2 (stereo not drawn)
TGI (HCT-116 colon): > 100 µM
TGI (RXF 393 renal): > 100 µM
TGI (SF-539 CNS): > 100 µM
TGI (SN12C renal): > 100 µM
TGI (HOP-92 NSCLC): > 100 µM
TGI (UACC-257 melanoma): > 100 µM
TGI (KM12 colon): > 100 µM
TGI (SW-620 colon): > 100 µM
TGI (NCI-H460 lung): > 100 µM

O=C(O)c1ccc2c(c1Nc1ccccc1)C(=O)c1ccccc1C2=O
GI50 (HCT-116 colon): 26.6 µM
TGI (HCT-116 colon): > 100 µM
GI50 (RXF 393 renal): 26.3 µM
TGI (RXF 393 renal): > 100 µM
GI50 (SF-539 CNS): 56.2 µM
TGI (SF-539 CNS): > 100 µM
GI50 (SN12C renal): 50.3 µM
TGI (SN12C renal): > 100 µM
GI50 (HOP-92 NSCLC): 27.9 µM
TGI (HOP-92 NSCLC): > 100 µM
GI50 (UACC-257 melanoma): 54.8 µM
TGI (UACC-257 melanoma): > 100 µM
GI50 (KM12 colon): 61.1 µM
TGI (KM12 colon): > 100 µM
GI50 (SW-620 colon): 44.1 µM
TGI (SW-620 colon): > 100 µM
GI50 (NCI-H460 lung): 27.3 µM
TGI (NCI-H460 lung): > 100 µM

COc1ccc(NC(=O)C(=O)C2CNC(=O)NC2=O)c(OC)c1 (stereo not drawn)
TGI (HCT-116 colon): > 100 µM
TGI (RXF 393 renal): > 100 µM
TGI (SF-539 CNS): > 100 µM
TGI (SN12C renal): > 100 µM
TGI (HOP-92 NSCLC): > 100 µM
TGI (UACC-257 melanoma): > 100 µM
TGI (KM12 colon): > 100 µM
TGI (SW-620 colon): > 100 µM
TGI (NCI-H460 lung): > 100 µM

COC(=O)C1=CN=C(C(=O)OC)NN1
TGI (HCT-116 colon): > 100 µM
TGI (RXF 393 renal): > 100 µM
TGI (SF-539 CNS): > 100 µM
TGI (SN12C renal): > 100 µM
TGI (HOP-92 NSCLC): > 100 µM
TGI (UACC-257 melanoma): > 100 µM
TGI (KM12 colon): > 100 µM
TGI (SW-620 colon): > 100 µM
TGI (NCI-H460 lung): > 100 µM

CC(=O)OCc1cc(OC(C)=O)cnc1COC(C)=O
TGI (HCT-116 colon): > 100 µM
TGI (RXF 393 renal): > 100 µM
TGI (SF-539 CNS): > 100 µM
TGI (SN12C renal): > 100 µM
TGI (HOP-92 NSCLC): > 100 µM
TGI (UACC-257 melanoma): > 100 µM
TGI (KM12 colon): > 100 µM
TGI (SW-620 colon): > 100 µM
TGI (NCI-H460 lung): > 100 µM

COc1ccc(C(c2ccc(C(C)C)cc(=O)c2O)c2ccc3cccnc3c2O)cc1 (stereo not drawn)
TGI (HCT-116 colon): 12.8 µM
TGI (SF-539 CNS): 2.29 µM
TGI (SN12C renal): 9.48 µM
TGI (HOP-92 NSCLC): 0.898 µM
TGI (KM12 colon): 18.7 µM
TGI (SW-620 colon): 24.4 µM
TGI (NCI-H460 lung): 10.1 µM

C[C@@H](CO)OCOCc1ccccc1
TGI (HCT-116 colon): > 100 µM
TGI (RXF 393 renal): > 100 µM
TGI (SF-539 CNS): > 100 µM
TGI (SN12C renal): > 100 µM
TGI (HOP-92 NSCLC): > 100 µM
TGI (UACC-257 melanoma): > 100 µM
TGI (KM12 colon): > 100 µM
TGI (SW-620 colon): > 100 µM
TGI (NCI-H460 lung): > 100 µM

Cn1cccc1-c1cc(-c2cccs2)[nH]c(=O)c1C#N
GI50 (HCT-116 colon): > 100 µM
TGI (HCT-116 colon): > 100 µM
GI50 (RXF 393 renal): > 100 µM
TGI (RXF 393 renal): > 100 µM
GI50 (SF-539 CNS): > 100 µM
TGI (SF-539 CNS): > 100 µM
GI50 (SN12C renal): > 100 µM
TGI (SN12C renal): > 100 µM
GI50 (HS 578T breast): > 100 µM
TGI (HS 578T breast): > 100 µM
GI50 (UACC-257 melanoma): > 100 µM
TGI (UACC-257 melanoma): > 100 µM
GI50 (KM12 colon): > 100 µM
TGI (KM12 colon): > 100 µM
GI50 (SW-620 colon): > 100 µM
TGI (SW-620 colon): > 100 µM
GI50 (NCI-H460 lung): 69.6 µM
TGI (NCI-H460 lung): > 100 µM

N.N.N.N.N.N.[I-].[Os]
GI50 (HCT-116 colon): > 100 µM
TGI (HCT-116 colon): > 100 µM
GI50 (RXF 393 renal): > 100 µM
TGI (RXF 393 renal): > 100 µM
GI50 (SF-539 CNS): > 100 µM
TGI (SF-539 CNS): > 100 µM
GI50 (SN12C renal): > 100 µM
TGI (SN12C renal): > 100 µM
GI50 (HOP-92 NSCLC): > 100 µM
TGI (HOP-92 NSCLC): > 100 µM
GI50 (UACC-257 melanoma): > 100 µM
TGI (UACC-257 melanoma): > 100 µM
GI50 (KM12 colon): > 100 µM
TGI (KM12 colon): > 100 µM
GI50 (SW-620 colon): > 100 µM
TGI (SW-620 colon): > 100 µM
GI50 (NCI-H460 lung): > 100 µM
TGI (NCI-H460 lung): > 100 µM

Cc1ccc([N+](=O)[O-])cc1NC(=O)C(=O)Cc1occc(=O)c1O
TGI (RXF 393 renal): > 100 µM
TGI (SF-539 CNS): > 100 µM
TGI (SN12C renal): > 100 µM
TGI (HOP-92 NSCLC): > 100 µM
TGI (KM12 colon): > 100 µM
TGI (SW-620 colon): > 100 µM
TGI (NCI-H460 lung): > 100 µM

Cc1ccc(S(=O)(=O)/N=c2\ssc(Nc3ccccc3)c2Cl)cc1
GI50 (RXF 393 renal): 13.6 µM
TGI (RXF 393 renal): 46.1 µM
GI50 (SN12C renal): 8.99 µM
TGI (SN12C renal): 25.6 µM
GI50 (HOP-92 NSCLC): 7.43 µM
TGI (HOP-92 NSCLC): > 50 µM
GI50 (UACC-257 melanoma): 9.86 µM
TGI (UACC-257 melanoma): 30.3 µM
GI50 (KM12 colon): 8.26 µM
TGI (KM12 colon): 20.4 µM
GI50 (NCI-H460 lung): 9.02 µM
TGI (NCI-H460 lung): 19.6 µM

O=C(Nc1ccccc1)Nc1cccc(-n2cc(-c3ccncc3)c(-c3ccc(O)c(Cl)c3)n2)c1
GI50 (HCT-116 colon): 3.41 µM
TGI (HCT-116 colon): 13.9 µM
GI50 (RXF 393 renal): 2.43 µM
TGI (RXF 393 renal): 9.63 µM
GI50 (SF-539 CNS): 1.96 µM
TGI (SF-539 CNS): 4.5 µM
GI50 (SN12C renal): 4.13 µM
TGI (SN12C renal): > 100 µM
GI50 (HS 578T breast): 3.24 µM
TGI (HS 578T breast): > 100 µM
GI50 (UACC-257 melanoma): 2.12 µM
TGI (UACC-257 melanoma): 4.91 µM
GI50 (KM12 colon): 3.3 µM
TGI (KM12 colon): 10.5 µM
GI50 (SW-620 colon): 3.67 µM
TGI (SW-620 colon): 38.4 µM
GI50 (NCI-H460 lung): 3.24 µM
TGI (NCI-H460 lung): 17.1 µM

CC1(C)OC(C(N)=O)=C(C(N)=O)O1
TGI (HCT-116 colon): > 100 µM
TGI (RXF 393 renal): > 100 µM
TGI (SF-539 CNS): > 100 µM
TGI (SN12C renal): > 100 µM
TGI (HOP-92 NSCLC): > 100 µM
TGI (UACC-257 melanoma): > 100 µM
TGI (KM12 colon): > 100 µM
TGI (SW-620 colon): > 100 µM
TGI (NCI-H460 lung): > 100 µM

O=C(/C=C\c1cccc2ccccc12)c1cccs1
TGI (HCT-116 colon): 10.7 µM
TGI (SF-539 CNS): 34.9 µM
TGI (SN12C renal): 31.5 µM
TGI (HOP-92 NSCLC): 25.8 µM
TGI (UACC-257 melanoma): 26.1 µM
TGI (KM12 colon): 17.6 µM
TGI (SW-620 colon): 2.99 µM
TGI (NCI-H460 lung): 27.7 µM

CN(C)C(=O)/N=c1\ss/c(=N\C(=S)N(C)C)n1-c1ccccc1
TGI (HCT-116 colon): 47.1 µM
TGI (RXF 393 renal): > 79.9 µM
TGI (SF-539 CNS): > 78.4 µM
TGI (SN12C renal): > 100 µM
TGI (HOP-92 NSCLC): > 100 µM
TGI (UACC-257 melanoma): 28.6 µM
TGI (KM12 colon): > 100 µM
TGI (SW-620 colon): > 100 µM
TGI (NCI-H460 lung): > 100 µM

O=C(O)c1ccc(O)c(N=Nc2cc(S(=O)(=O)O)c3ccccc3c2O)c1
TGI (HCT-116 colon): 37.4 µM
TGI (RXF 393 renal): > 100 µM
TGI (SF-539 CNS): > 10 µM
TGI (SN12C renal): > 100 µM
TGI (HOP-92 NSCLC): > 100 µM
TGI (UACC-257 melanoma): > 10 µM
TGI (KM12 colon): > 100 µM
TGI (SW-620 colon): > 100 µM
TGI (NCI-H460 lung): > 100 µM
